One may read the melting point as the temperature, or range, at which the solid turns liquid. `O=C(O)C(=O)O.O=c1[nH]c2ccc(C(c3nc(-c4ccccc4)cs3)n3ccnc3-c3ccccc3)cc2c(-c2cccc(Cl)c2)c1CO` (centres unmarked) had a melting point of 149 °C.

The compound `Cn1cncc1C(O)(c1ccc2c(c1)c(-c1cccc(Cl)c1)cc(=O)n2C)c1nccn1C` (centres unmarked) [Example B7, 4-(3-chlorophenyl)-6-[hydroxy(1-methyl-1H-imidazol-2-yl)(1-methyl-1H-imidazol-5-yl)methyl]-1-methyl-2(1H)-quinolinone] came in with a melting point of 130 °C.

As for `Cn1cncc1C(O)(c1ccc2c(c1)c(-c1cccc(Cl)c1)cc(=O)n2C)c1nccs1` (racemic) [Example B3 F2, (±)-4-(3-chlorophenyl)-6-[hydroxy(1-methyl-1H-imidazol-5-yl)-2-thiazolylmethyl]-1-methyl-2(1H)-quinolinone], the melting point came to 246 °C.

For `Cn1cncc1C(N)(c1ccoc1)c1ccc2c(c1)c(-c1cccc(Cl)c1)cc(=O)n2C` (racemic) [Example B8, (±)-6-[amino-3-furanyl(1-methyl-1H-imidazol-5-yl)methyl]-4-(3-chlorophenyl)-1-methyl-2(1H)-quinolinone], the melting point came to 197 °C.

Regarding `Cn1cncc1C(O)(c1ccoc1)c1ccc2c(c1)c(-c1cccc(Cl)c1)cc(=O)n2C` (racemic) [Example B6, (±)-4-(3-chlorophenyl)-6-[3-furanylhydroxy(1-methyl-1H-imidazol-5-yl)methyl]-1-methyl-2(1H)-quinolinone], the melting point was 248 °C.
